# ChEMBL document CHEMBL2146392, “Minutissamides E-L, antiproliferative cyclic lipodecapeptides from the cultured freshwater cyanobacterium cf. Anabaena sp” (Bioorg Med Chem, 2012)
# Calls of active or inactive are those of the source. The calls are words filed in the database; no cut-off is given here.
# Key:
# [1] = system: Mycolicibacterium smegmatis; experiment: Antibacterial activity against Mycobacterium smegmatis at 10 ug/ml; assay type: functional, organism-based
# Staphylococcus aureus = experiment: Antibacterial activity against Staphylococcus aureus at 10 ug/ml; assay type: functional, organism-based
# Enterococcus faecalis = experiment: Antibacterial activity against Enterococcus faecalis at 10 ug/ml; assay type: functional, organism-based
# Streptococcus pneumoniae = experiment: Antibacterial activity against Streptococcus pneumoniae at 10 ug/ml; assay type: functional, organism-based
# Acinetobacter baumannii = experiment: Antibacterial activity against Acinetobacter baumannii at 10 ug/ml; assay type: functional, organism-based
# Escherichia coli = experiment: Antibacterial activity against Escherichia coli at 10 ug/ml; assay type: functional, organism-based
# Pseudomonas aeruginosa = experiment: Antibacterial activity against Pseudomonas aeruginosa at 10 ug/ml; assay type: functional, organism-based
# MDA-MB-435 = experiment: Antiproliferative activity against human MDA-MB-435 cells assessed as cell viability at 1 ng/ml after 96 hrs; assay type: functional; conditions: MDA-MB-435, 96 h, read-out: Activity
SMILES,Activity [1],Activity (Staphylococcus aureus),Activity (Enterococcus faecalis),Activity (Streptococcus pneumoniae),Activity (Acinetobacter baumannii),Activity (Escherichia coli),Activity (Pseudomonas aeruginosa),viability at 0.001 µg/mL (MDA-MB-435) [%]
C/C=C1/NC(=O)[C@H](C(C)C)NC(=O)[C@H](O)[C@@H]([C@@H](C)CCCCCCCCCCC(=O)CCC)NC(=O)[C@@H]2CCCN2C(=O)[C@H](CC(N)=O)N(C)C(=O)[C@H]([C@@H](C)OC)NC(=O)[C@@H](C)NC(=O)[C@H](CCC(N)=O)NC(=O)[C@H]([C@@H](C)O)NC(=O)[C@H]([C@@H](C)O)NC1=O,inactive,inactive,inactive,inactive,inactive,inactive,inactive,
C/C=C1/NC(=O)[C@H](C(C)C)NC(=O)[C@H](O)[C@@H]([C@@H](C)CCCCCCCC(Cl)CC)NC(=O)[C@@H]2CCCN2C(=O)[C@H](CC(N)=O)N(C)C(=O)[C@H]([C@@H](C)OC)NC(=O)[C@@H](C)NC(=O)[C@H](CCC(N)=O)NC(=O)[C@H]([C@@H](C)O)NC(=O)[C@H]([C@@H](C)O)NC1=O (stereo partly drawn),inactive,inactive,inactive,inactive,inactive,inactive,inactive,
C/C=C1/NC(=O)[C@H](C(C)C)NC(=O)[C@H](O)[C@@H]([C@@H](C)CCCCCCCCCCC(=O)CCC)NC(=O)[C@@H]2CCCN2C(=O)[C@H](CC(N)=O)N(C)C(=O)[C@H]([C@@H](C)OC)NC(=O)[C@@H](C)NC(=O)[C@H](CCC(N)=O)NC(=O)[C@H](C(C)C)NC(=O)[C@H]([C@@H](C)O)NC1=O,inactive,inactive,inactive,inactive,inactive,inactive,inactive,
C/C=C1/NC(=O)[C@H](C(C)C)NC(=O)[C@H](O)[C@@H]([C@@H](C)CCCCCCCCCCC(O)CCC)NC(=O)[C@@H]2CCCN2C(=O)[C@H](CC(N)=O)N(C)C(=O)[C@H]([C@@H](C)OC)NC(=O)[C@@H](C)NC(=O)[C@H](CCC(N)=O)NC(=O)[C@H]([C@@H](C)O)NC(=O)[C@H]([C@@H](C)O)NC1=O (stereo partly drawn),inactive,inactive,inactive,inactive,inactive,inactive,inactive,
C/C=C1/NC(=O)[C@H](C(C)C)NC(=O)[C@H](O)[C@@H]([C@@H](C)CCCCCCCC(Cl)CC)NC(=O)[C@@H]2CCCN2C(=O)[C@H](CC(N)=O)N(C)C(=O)[C@H]([C@@H](C)OC)NC(=O)CNC(=O)[C@H](CCC(N)=O)NC(=O)[C@H]([C@@H](C)O)NC(=O)[C@H]([C@@H](C)O)NC1=O (stereo partly drawn),inactive,inactive,inactive,inactive,inactive,inactive,inactive,
C/C=C1/NC(=O)[C@H](C(C)C)NC(=O)[C@H](O)[C@@H]([C@@H](C)CCCCCCCCCCC(=O)CCC)NC(=O)[C@@H]2CCCN2C(=O)[C@H](CC(N)=O)N(C)C(=O)[C@H]([C@@H](C)OC)NC(=O)CNC(=O)[C@H](CCC(N)=O)NC(=O)[C@H]([C@@H](C)O)NC(=O)[C@H]([C@@H](C)O)NC1=O,inactive,inactive,inactive,inactive,inactive,inactive,inactive,
CC[C@]1(O)C[C@@H]2CN(CCc3c([nH]c4ccccc34)[C@@](C(=O)OC)(c3cc4c(cc3OC)N(C)[C@H]3[C@@](O)(C(=O)OC)[C@H](OC(C)=O)[C@]5(CC)C=CCN6CC[C@]43[C@@H]65)C2)C1 [VINBLASTINE],,,,,,,,49
